Type in all cases: cell-based
In one experiment the target is T1, human TLR7 (Homo sapiens, UniProt Q9NYK1).
T1 construct: host or cells: human HEK-Blue cells with NF-kB/AP1-inducible SEAP reporter
T1 sequence (Q9NYK1 27-1049): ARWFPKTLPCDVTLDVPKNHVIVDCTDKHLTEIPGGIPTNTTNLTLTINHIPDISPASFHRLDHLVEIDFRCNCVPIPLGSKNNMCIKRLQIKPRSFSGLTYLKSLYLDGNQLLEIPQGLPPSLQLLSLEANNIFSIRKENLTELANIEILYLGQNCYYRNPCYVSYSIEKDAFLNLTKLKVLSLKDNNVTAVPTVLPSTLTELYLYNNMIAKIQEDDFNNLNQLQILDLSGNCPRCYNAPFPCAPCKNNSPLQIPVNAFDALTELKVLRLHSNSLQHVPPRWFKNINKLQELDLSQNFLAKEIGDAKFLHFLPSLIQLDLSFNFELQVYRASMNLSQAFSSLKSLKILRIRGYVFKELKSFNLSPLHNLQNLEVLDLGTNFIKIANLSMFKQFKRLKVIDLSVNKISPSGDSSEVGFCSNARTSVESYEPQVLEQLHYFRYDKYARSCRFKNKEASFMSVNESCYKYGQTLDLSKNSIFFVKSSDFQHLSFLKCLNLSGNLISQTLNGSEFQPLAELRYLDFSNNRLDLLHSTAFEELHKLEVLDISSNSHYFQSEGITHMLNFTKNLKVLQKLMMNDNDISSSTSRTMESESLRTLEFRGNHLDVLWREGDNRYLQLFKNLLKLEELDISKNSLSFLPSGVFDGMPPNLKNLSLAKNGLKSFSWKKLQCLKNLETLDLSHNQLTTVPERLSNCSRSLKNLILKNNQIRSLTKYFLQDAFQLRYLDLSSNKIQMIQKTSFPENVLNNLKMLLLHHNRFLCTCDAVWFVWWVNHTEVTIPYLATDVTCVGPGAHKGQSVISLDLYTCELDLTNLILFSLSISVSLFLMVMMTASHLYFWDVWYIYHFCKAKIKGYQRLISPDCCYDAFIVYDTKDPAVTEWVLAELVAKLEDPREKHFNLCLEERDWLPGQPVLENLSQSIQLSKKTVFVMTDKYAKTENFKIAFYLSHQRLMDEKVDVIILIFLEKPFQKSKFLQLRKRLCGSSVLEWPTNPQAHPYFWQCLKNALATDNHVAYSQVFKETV
As to the kind of experiment: In vitro human TLR7 reporter assay (HEK-Blue, NF-kB/AP1-inducible SEAP). The note with it: HEK-Blue TLR7 cells, SEAP reporter; read-out: TLR7 Agonist EC50 value. On the procedure: (§1) In Vitro Human TLR7 and TLR8 Binding Reporter Assays Logarithmically-growing human HEK-Blue cells co-expressing a TLR7 or TLR8 gene and a NF-kB/AP1-inducible SEAP (secreted embryonic alkaline phosphatase; […] Cellular SEAP production is measured using an Envision plate reader instrument thirty minutes after adding freshly-made Quanti-Blue reagent (prepared by following manufacturer instructions; Invivogen, San Diego, CA) to the HEK-Blue TLR Nf-kB-SEAP cell reactions. All EC50 values (half-maximal effective concentration) are determined using proprietary data analysis software.
(In general: In a reporter assay the amount or activity of a reporter protein is the signal.)

The target in the next experiment is T2, NLRP3 (Homo sapiens, UniProt Q96P20).
T2 construct: host or cells: PMA-differentiated THP-1 cells
As to the kind of experiment: Measurement of IL-1β production in PMA-differentiated THP-1 cells (NLRP3 hIL1B). Put shortly: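 THP-1 cells differentiated with PMA, then replated in RPMI with 2% FBS and exposed to compound for 4 h (alternative: 2 h; hTRF protocol: 2 h at 37 °C, top concentration 10 μM). Supernatant IL-1β was quantified by ELISA or HTRF. Final DMSO 1%, with vehicle control.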

A further experiment addresses T3, human TLR8 (Homo sapiens, UniProt Q9NR97).
T3 construct: host or cells: human HEK-Blue cells with NF-kB/AP1-inducible SEAP reporter
T3 sequence (Q9NR97 27-1041): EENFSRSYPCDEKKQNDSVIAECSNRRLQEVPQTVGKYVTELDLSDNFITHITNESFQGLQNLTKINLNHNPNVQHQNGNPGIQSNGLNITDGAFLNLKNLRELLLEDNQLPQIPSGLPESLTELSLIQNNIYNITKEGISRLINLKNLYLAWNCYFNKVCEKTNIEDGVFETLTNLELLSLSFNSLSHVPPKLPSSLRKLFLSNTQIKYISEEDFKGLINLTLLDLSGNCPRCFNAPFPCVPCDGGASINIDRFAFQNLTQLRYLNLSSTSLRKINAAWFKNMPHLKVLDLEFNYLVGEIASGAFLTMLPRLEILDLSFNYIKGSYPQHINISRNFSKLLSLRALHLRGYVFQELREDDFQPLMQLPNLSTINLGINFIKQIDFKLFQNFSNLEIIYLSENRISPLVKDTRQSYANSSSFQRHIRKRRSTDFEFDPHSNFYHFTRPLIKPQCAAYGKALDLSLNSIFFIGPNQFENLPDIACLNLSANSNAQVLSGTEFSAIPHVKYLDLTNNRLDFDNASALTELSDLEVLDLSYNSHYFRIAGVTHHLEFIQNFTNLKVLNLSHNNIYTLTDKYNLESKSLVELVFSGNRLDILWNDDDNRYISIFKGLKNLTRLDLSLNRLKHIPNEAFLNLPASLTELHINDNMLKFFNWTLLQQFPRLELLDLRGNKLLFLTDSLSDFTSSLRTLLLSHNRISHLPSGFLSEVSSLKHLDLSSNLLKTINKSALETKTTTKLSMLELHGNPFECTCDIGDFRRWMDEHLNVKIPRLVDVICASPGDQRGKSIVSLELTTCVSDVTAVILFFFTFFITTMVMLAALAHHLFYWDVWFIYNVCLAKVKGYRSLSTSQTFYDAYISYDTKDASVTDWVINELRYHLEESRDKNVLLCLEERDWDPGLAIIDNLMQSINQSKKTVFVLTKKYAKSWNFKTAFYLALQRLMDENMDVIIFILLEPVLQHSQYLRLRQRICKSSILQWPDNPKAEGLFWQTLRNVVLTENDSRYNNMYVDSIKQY
Kind of experiment: In vitro human TLR8 reporter assay (HEK-Blue, NF-kB/AP1-inducible SEAP). The note with it: at 62.5 μM. The method, then:
as §1

T2 sequence (Q96P20 whole entry): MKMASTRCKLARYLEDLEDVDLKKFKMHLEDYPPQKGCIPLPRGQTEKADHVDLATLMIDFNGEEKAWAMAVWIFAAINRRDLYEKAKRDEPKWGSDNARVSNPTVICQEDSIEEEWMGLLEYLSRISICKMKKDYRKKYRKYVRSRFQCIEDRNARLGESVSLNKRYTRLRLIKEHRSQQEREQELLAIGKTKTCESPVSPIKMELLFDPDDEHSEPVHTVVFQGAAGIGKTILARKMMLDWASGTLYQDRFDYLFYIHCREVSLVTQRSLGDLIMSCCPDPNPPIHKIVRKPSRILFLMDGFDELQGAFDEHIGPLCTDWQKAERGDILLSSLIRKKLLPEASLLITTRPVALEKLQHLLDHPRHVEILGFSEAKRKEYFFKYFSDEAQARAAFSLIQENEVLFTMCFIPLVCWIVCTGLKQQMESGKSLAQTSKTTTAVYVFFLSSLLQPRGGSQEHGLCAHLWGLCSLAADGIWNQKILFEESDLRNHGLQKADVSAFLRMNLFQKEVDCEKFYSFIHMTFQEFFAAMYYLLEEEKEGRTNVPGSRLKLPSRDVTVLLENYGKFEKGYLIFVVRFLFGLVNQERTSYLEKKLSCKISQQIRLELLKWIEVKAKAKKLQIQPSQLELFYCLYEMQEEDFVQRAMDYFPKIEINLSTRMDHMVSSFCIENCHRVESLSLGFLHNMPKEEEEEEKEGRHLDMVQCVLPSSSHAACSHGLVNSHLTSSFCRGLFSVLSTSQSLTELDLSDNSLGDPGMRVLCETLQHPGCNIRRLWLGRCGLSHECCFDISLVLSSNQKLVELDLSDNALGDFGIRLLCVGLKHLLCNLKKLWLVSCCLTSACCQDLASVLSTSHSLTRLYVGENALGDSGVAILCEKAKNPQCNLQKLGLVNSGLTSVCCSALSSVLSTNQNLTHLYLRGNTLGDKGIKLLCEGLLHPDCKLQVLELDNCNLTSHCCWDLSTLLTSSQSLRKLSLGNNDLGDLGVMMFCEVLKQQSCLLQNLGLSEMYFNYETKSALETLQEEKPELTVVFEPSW

As for `CCCCCNc1nc(N)nc2cc(-c3ccn[nH]3)ccc12` [Example 93], the EC50 on human TLR7 is 1000 to 20000 nM; at NLRP3 it was 270 nM.

As to `CCCCC(CCO)Nc1nc(N)nc2cc(-c3ccn[nH]3)ccc12` (single isomer, unassigned) [Example 100, 3-((2-amino-7-(1H-pyrazol-5-yl)quinazolin-4-yl)amino)heptan-1-ol], the EC50 at human TLR7 is 1000 to 20000 nM; on NLRP3 it was 450 nM.

As to `CCCCC(CCO)Nc1nc(N)nc2cc(-c3ccn[nH]3)ccc12` (racemic) [Example 99, rac-3-((2-amino-7-(1H-pyrazol-5-yl)quinazolin-4-yl)amino)heptan-1-ol], the EC50 is 1000 to 20000 nM at human TLR7 and 740 nM at NLRP3.

Consider `CCCCNc1nc(N)nc2cc(-c3ccn[nH]3)ccc12` [Example 92], for which the EC50 is more than 1000 nM at human TLR7 and 200 nM at NLRP3.

Compound `Cn1c(CCNc2nc(N)nc3cc(-c4ccn[nH]4)ccc23)nc2ccccc21` [Example 165] showed a TLR8 activity at human TLR8 of less than 50%. The response at NLRP3 was half-maximal at 4120 nM (EC50).

For `CCCC(CCO)Nc1nc(N)nc2cc(-c3ccn[nH]3)ccc12` (racemic) [Example 96, rac-3-((2-amino-7-(1H-pyrazol-5-yl)quinazolin-4-yl)amino)hexan-1-ol], the EC50 at human TLR7 is 1000 to 20000 nM; on NLRP3, 690 nM.

Turning to `COCC(COC)Nc1nc(N)nc2cc(-c3ccn[nH]3)ccc12` [Example 79], the figures for the EC50 on human TLR7 and on NLRP3 were 20000 to 100000 nM and 1200 nM, respectively.

In the case of `CCCCCNc1nc(N)nc2cc(-c3cc[nH]n3)cc(F)c12` [Example 125], the EC50 is 1000 to 20000 nM on human TLR7 and 710 nM at NLRP3.

Turning to `CCCC(CCO)Nc1nc(N)nc2cc(-c3ccn[nH]3)ccc12` (single isomer, unassigned) [Example 97, 3-((2-amino-7-(1H-pyrazol-5-yl)quinazolin-4-yl)amino)hexan-1-ol], the 50% effective concentration (EC50) is 1000 to 20000 nM at human TLR7 and 710 nM on NLRP3.

For orientation: EC50 means the concentration giving half of the maximal effect.

The record behind these values is patent publication US12187706B2, “NLRP3 modulators” (INNATE TUMOR IMMUNITY, INC., priority 2019, dated 2025).
